The results in this text go back to ChEMBL document CHEMBL4680122, “Design, synthesis and biological evaluation of new Axl kinase inhibitors containing 1,3,4-oxadiazole acetamide moiety as novel linker” (Eur J Med Chem, 2020).

For one experiment, the system named is HT-29. As to the kind of experiment: Potency index, ratio of foretinib IC50 to test compound IC50 for antiproliferative activity against human HT-29 cells. The class given is functional.
The next experiment has as its system PC-3. Description: cells. The conditions noted are these: Homo sapiens, PC-3, 72 h.
The next experiment has as its system NCI-H1975. As to the kind of experiment: Antiproliferative activity against human NCI-H1975 cells measured after 72 hrs by MTT assay. The class given is functional, cell-based. The conditions noted are these: NCI-H1975, 72 h.
In experiment [1] the target is T1, Tyrosine-protein kinase Mer (Homo sapiens, UniProt Q12866).
T1 sequence (Q12866 whole entry): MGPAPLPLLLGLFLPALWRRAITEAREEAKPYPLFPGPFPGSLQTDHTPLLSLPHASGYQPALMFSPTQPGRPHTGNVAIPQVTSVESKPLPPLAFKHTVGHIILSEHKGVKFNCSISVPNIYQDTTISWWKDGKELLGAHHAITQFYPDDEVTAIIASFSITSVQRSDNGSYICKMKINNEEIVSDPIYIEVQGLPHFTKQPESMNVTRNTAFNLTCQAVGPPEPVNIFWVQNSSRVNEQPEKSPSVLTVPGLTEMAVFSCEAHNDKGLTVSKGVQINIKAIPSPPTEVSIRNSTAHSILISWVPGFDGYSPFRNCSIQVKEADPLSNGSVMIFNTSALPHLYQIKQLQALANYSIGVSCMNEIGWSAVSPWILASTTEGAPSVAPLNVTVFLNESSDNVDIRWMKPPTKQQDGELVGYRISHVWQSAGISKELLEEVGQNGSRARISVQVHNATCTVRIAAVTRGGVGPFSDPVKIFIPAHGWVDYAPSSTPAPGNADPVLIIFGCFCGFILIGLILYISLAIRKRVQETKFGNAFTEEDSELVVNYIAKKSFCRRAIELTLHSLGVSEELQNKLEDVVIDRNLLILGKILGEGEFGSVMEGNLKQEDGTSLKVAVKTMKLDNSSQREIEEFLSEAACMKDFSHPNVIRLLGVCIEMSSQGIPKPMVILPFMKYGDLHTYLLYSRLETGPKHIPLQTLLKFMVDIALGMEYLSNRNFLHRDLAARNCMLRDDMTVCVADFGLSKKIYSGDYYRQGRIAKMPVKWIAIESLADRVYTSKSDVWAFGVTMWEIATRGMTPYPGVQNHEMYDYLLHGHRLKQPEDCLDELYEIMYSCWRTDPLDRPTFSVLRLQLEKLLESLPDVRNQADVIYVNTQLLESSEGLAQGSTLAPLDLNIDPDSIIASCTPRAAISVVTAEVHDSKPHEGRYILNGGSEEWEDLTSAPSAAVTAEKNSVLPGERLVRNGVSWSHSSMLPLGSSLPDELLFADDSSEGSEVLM
Description: Inhibition of MER (unknown origin).

The target in experiment [2] is T2, Receptor-type tyrosine-protein kinase FLT3 (Homo sapiens, UniProt P36888).
T2 sequence (P36888 whole entry): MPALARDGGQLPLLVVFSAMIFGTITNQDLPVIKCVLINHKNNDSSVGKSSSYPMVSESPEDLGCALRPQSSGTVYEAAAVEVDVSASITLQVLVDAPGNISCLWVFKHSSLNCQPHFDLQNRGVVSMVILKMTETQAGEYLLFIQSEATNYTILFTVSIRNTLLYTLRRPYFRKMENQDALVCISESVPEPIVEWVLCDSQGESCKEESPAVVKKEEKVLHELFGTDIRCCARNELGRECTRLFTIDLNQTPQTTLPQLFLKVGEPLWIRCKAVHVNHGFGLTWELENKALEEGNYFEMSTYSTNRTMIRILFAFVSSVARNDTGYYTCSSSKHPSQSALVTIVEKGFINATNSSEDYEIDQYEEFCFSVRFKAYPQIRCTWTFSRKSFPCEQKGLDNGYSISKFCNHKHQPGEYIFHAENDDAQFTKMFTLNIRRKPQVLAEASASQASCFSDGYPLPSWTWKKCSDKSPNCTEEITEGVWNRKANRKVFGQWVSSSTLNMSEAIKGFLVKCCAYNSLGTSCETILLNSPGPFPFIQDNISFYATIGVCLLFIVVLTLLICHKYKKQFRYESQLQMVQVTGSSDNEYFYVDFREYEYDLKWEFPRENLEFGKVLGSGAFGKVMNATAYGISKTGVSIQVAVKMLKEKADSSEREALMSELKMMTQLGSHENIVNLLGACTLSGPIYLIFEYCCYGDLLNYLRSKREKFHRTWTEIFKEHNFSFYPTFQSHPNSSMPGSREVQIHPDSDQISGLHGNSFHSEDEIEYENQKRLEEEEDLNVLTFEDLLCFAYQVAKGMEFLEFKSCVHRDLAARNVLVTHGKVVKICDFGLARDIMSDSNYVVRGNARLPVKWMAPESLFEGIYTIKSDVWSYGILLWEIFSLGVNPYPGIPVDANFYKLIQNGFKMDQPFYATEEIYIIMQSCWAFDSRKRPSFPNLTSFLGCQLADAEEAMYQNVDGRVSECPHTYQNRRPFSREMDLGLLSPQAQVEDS
As to the kind of experiment: Inhibition of human N-terminal GST-fused FLT3 cytoplasmic domain (564 to 993 residues) expressed in baculovirus expression system using Srctide as substrate measured after 1 hr by mobility shift assay.

A value given as a limit tells only on which side of the number the result lay.

Description for PC-3: Antiproliferative activity against human PC-3 cells measured after 72 hrs by MTT assay

The term IC50 denotes the concentration needed to halve the response being measured. On to `COc1cc2c(Oc3ccc(NC(=O)C4(c5nnc(-c6ccc(F)cc6)o5)CC4)cc3F)ccnc2cc1OCCCN1CCCCC1`, for which, in the experiment with HT-29, the “Ratio IC50” value was 1.57. Also, the IC50 is 590 nM in the experiment with PC-3, 99 nM in the experiment with NCI-H1975, > 200 nM in experiment [1] and 103 nM in experiment [2].
